Measurements reported in PubChem BioAssay (NCI).
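The compound was tested at five concentrations on cells cultured in 96-well plates, with a 48-hour exposure period. The concentration for 50% growth inhibition is given as GI50. Definition used: TGI = concentration required for complete inhibition of growth.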

Columns and labels:
Assay in all cases: inhibition of tumour cell growth, NCI panel, 48 h
[1] = tested on: COLO 205 colon
[2] = tested on: HCT-15 colon
[3] = tested on: M14 melanoma
[4] = tested on: MALME-3M melanoma
[5] = tested on: RPMI-8226 leukemia
[6] = tested on: SF-268 CNS
[7] = tested on: SF-539 CNS
[8] = tested on: SR leukemia
[9] = tested on: SW-620 colon
[10] = tested on: DU-145 prostate

| SMILES | GI50 [1] [µM] | TGI [1] [µM] | GI50 [2] [µM] | TGI [2] [µM] | GI50 [3] [µM] | TGI [3] [µM] | GI50 [4] [µM] | TGI [4] [µM] | GI50 [5] [µM] | TGI [5] [µM] | GI50 [6] [µM] | TGI [6] [µM] | GI50 [7] [µM] | TGI [7] [µM] | GI50 [8] [µM] | TGI [8] [µM] | GI50 [9] [µM] | TGI [9] [µM] | GI50 [10] [µM] | TGI [10] [µM] |
| --- | --- | --- | --- | --- | --- | --- | --- | --- | --- | --- | --- | --- | --- | --- | --- | --- | --- | --- | --- | --- |
| CCC[CH2][Sn]([CH2]CCC)([O]C(C)=O)[O]C(C)=O | 1.81 | 4.29 | 1.43 | 3.14 | 1.74 | 4.26 | 0.994 | 2.36 | 0.321 | 2.11 | 1.23 | 4.1 | 1.53 | 3.19 | 0.571 | 4.72 | 0.694 | 2.65 | – | – |
| CC1=C2CCCC2C/C(=N/Nc2ccc([N+](=O)[O-])cc2[N+](=O)[O-])CC1 (stereo not drawn) | – | > 100 | – | > 100 | – | > 100 | – | > 100 | – | > 100 | – | > 100 | – | > 100 | – | > 100 | – | > 100 | – | – |
| CC1CC2C(=O)NC(=O)C2c2[nH]c3ccccc3c21 (stereo not drawn) | – | > 100 | – | > 100 | – | > 100 | – | > 100 | – | > 100 | – | > 100 | – | > 100 | – | > 100 | – | > 100 | – | – |
| CN(C)CCCNC(=O)c1cc(NC(=O)CCNS(=O)(=O)c2ccc3c(c2)C(=O)c2ccccc2C3=O)cn1C | > 100 | > 100 | – | – | > 100 | > 100 | – | – | > 100 | > 100 | > 100 | > 100 | > 100 | > 100 | > 100 | > 100 | > 100 | > 100 | – | – |
| COC(=O)[C@@H]1CSC(=S)N1C(=O)C[C@H]1CC=CC[C@H]1CC(=O)Sc1ccccc1 | – | 37.1 | – | 32.3 | – | 32.4 | – | 56.7 | – | 61.7 | – | 35.1 | – | 32.1 | – | 27.9 | – | 33.9 | – | – |
| CCCC(O)[C@@H](O)c1ccc2c(c1O)C(=O)c1c(OC)cccc1C2=O (stereo partly drawn) | – | 44.8 | – | 82.5 | – | 69.1 | – | 90.3 | – | 38.2 | – | > 100 | – | 58.8 | – | 66.6 | – | > 100 | – | – |
| CC1(Sc2ccccc2)CN(Cc2ccccc2)C1=O (stereo not drawn) | – | > 100 | – | > 100 | – | > 100 | – | – | – | > 100 | – | > 100 | – | > 100 | – | – | – | > 100 | – | – |
| CS(=O)(=O)CC1=Nc2nnc(CCCCCCCc3nnc4n3C(=O)C(CS(C)(=O)=O)=N4)n2C1=O | – | > 100 | – | > 100 | – | > 100 | – | > 100 | – | > 100 | – | > 100 | – | > 100 | – | > 100 | – | > 100 | – | – |
| COC(=O)c1[nH]c(=S)[nH]c(=O)c1-c1ccc(Cl)cc1 | – | > 50 | – | > 50 | – | > 50 | – | > 50 | – | > 50 | – | > 50 | – | > 50 | – | > 50 | – | > 50 | – | – |
| O=C1C/C(=C/c2ccc(/C=C3/CC(=O)N(c4cccc(Br)c4)C3=O)cc2)C(=O)N1c1cccc(Br)c1 | – | > 100 | – | > 100 | – | > 100 | – | > 100 | – | > 100 | – | > 100 | – | > 100 | – | > 100 | – | > 100 | – | – |
| O=C1C(Cl)=C(N/N=c2/[nH][nH]/c(=N/NC3=C(Cl)C(=O)c4ccccc4C3=O)c3ccccc23)C(=O)c2ccccc21 | 16.1 | 32.9 | 19.8 | > 100 | 16.9 | 34.8 | – | – | 10.1 | 44.1 | 12.2 | 29.9 | 15.6 | 31.7 | 9.97 | 59.1 | 16.6 | 43.3 | 17.8 | 33.6 |
| CC12CCC(=O)C(O1)C1C(=O)c3cc4ccccc4cc3C(=O)C12 (stereo not drawn) | 19.9 | 47.1 | 17.3 | 36.8 | 21.5 | 53.3 | 12.9 | 29.5 | – | – | 16.1 | 53 | 21.8 | 59.3 | – | – | – | – | – | – |
| CC1(C)CCC2(C(=O)OC3OC(CO)C(O)C(O)C3O)CC[C@]3(C)C(=CCC4C5(C)CC[C@H](OC6OC(C(=O)O)C(O)C(O)C6O)C(C)(C)C5CCC43C)C2C1 (stereo partly drawn) | 1.36 | 3.55 | 6.73 | 13.3 | 1.47 | 4.33 | – | – | 0.776 | 10.2 | 2.17 | 11.4 | – | – | – | – | 1.93 | 8.87 | – | – |
| C=C1C(=O)O[C@H]2C[C@@H](C)[C@@H]3CC(=O)OC[C@@]3(C)CC12 (stereo partly drawn) | – | 60.7 | – | > 100 | – | 31.6 | – | 35 | – | 75.2 | – | > 100 | – | 48 | – | – | – | 35.1 | – | – |
| Cc1ccc2c(c1)C1(C)OC(CC(N)C1O)O2 (stereo not drawn) | – | > 100 | – | > 100 | – | > 100 | – | > 100 | – | > 100 | – | – | – | > 100 | – | – | – | > 100 | – | – |
| CC(=O)/C(=C\c1ccco1)C(=O)Nc1ccccc1 | – | – | – | > 100 | – | > 100 | – | > 100 | – | > 100 | – | > 100 | – | > 100 | – | > 100 | – | > 100 | – | – |
| C=C1C(=O)O[C@@H]2C1CC(=O)C(C)CC/C=C(\C)CCC[C@H](C)[C@H]2OC(C)=O (stereo partly drawn) | 5.34 | > 100 | 13.7 | 30.4 | 4.24 | 16 | – | – | 3.99 | 19 | 20.5 | 41.3 | 18.3 | 34.6 | – | – | 9.18 | 21.9 | 15 | 31.7 |
| C=C1C(=O)OC2CC3(C)C=CC(=O)C(=C)C3CC12 (stereo not drawn) | – | 3.05 | – | 4.09 | – | 2.86 | – | 4.02 | – | 3.22 | – | 6.91 | – | 3.97 | – | 12.4 | – | 2.36 | – | – |
| COC12C=CC(CC1)c1c(O)ccc(O)c12 (stereo not drawn) | – | 57 | – | > 55.9 | – | > 100 | – | > 100 | – | > 100 | – | > 31.6 | – | > 100 | – | 36.3 | – | > 63.8 | – | – |
| CN(C)c1ccc2c(NCCCCCCNc3ccnc4cc(N(C)C)ccc34)ccnc2c1 | – | – | – | > 100 | – | > 100 | – | 12.9 | – | – | – | > 100 | – | 45.2 | – | > 100 | – | > 100 | – | – |
